Data reported in PMC11672137, “High-Affinity Lectin Ligands Enable the Detection of Pathogenic Pseudomonas aeruginosa Biofilms: Implications for Diagnostics and Therapy” (JACS Au, 2024).

Target: T1, LecA (Pseudomonas aeruginosa, UniProt Q05097)
T1 construct: made in house
Experiment: Competitive binding assay based on fluorescence polarization, LecA
Experimental: Next, binding of the optimized divalent ligand 17 and its synthetic precursor 16 to LecA was evaluated by fluorescence polarization-based (FP) assays,[47] SPR, and ITC. […] Therefore, fluorescent ligand 17 was analyzed in a direct binding experiment by FP. […] The dissociation constants for 16 were 47.2 ± 11.3 nM (ITC) and 47.8 ± 44.1 nM (steady-state SPR), while for 17, the values were 64.1 ± 31.1 nM and 79.3 ± 24.9 nM (steady-state SPR). For the SPR experiments, Kd was also determined by single-cycle kinetic analysis resulting in approximately five times higher affinity, but the data have limited reliability due to suboptimal fit for the kinetic curves (Figures S13B and S14).[58]−[60] […]
137 mM NaCl, 2.6 mM KCl at pH 7.4 supplemented with 1 mM CaCl2). Protein concentration was determined by UV spectroscopy at 280 nm using a molar extinction coefficient of 27 960 M-1 cm-1 for LecA and 6 990 M-1 cm-1 for LecB.
All synthesized alkyne precursors (S5m, S5p, S6m, S6p, S11, 25, S16, S22 and S24) were analysed in the previously established competitive binding assays based on fluorescence polarization (Figure S2).18,19 Galactose-based compounds (S5m, S5p, S6m, S6p, S11) were evaluated against LecA and C-glycoside-based compounds […] and S16 against LecB. […]
PheraStar FS plate reader (BMG Labtech GmbH, Germany) with excitation filters at 485 nm and emission filters at 535 nm. […]

T1 sequence (Q05097 whole entry): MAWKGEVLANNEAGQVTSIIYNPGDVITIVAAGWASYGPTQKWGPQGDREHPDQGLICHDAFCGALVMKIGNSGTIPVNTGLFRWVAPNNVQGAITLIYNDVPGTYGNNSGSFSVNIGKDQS

## C#CCCN(Cc1ccc(NC(=O)CCc2ccc(O[C@@H]3O[C@H](CO)[C@H](O)[C@H](O)[C@H]3O)cc2)cc1)Cc1ccc(NC(=O)CCc2ccc(O[C@@H]3O[C@H](CO)[C@H](O)[C@H](O)[C@H]3O)cc2)cc1 [compound 16]
  IC50: 5.6 ± 2.2 µM
